Assay results reported in article PMC5531278 (Bioorganic & medicinal chemistry letters, 2016).
Read-outs that look alike come from different tables or passages of the source.

Columns and labels:
in vitro [1] = conditions: human, microsomes
CD-1 mice = conditions: mouse, in vivo
GL261-luc2 = experiment: MTT cell viability assay in GL261-luc2; type: cell-based; conditions: Mus musculus, 72 h, read-out: MTT assay IC50
[2] = Bidirectional Caco-2 cell monolayer permeability; conditions: human, Caco-2, pH 6.5
Caco-2 cell monolayer = experiment: Bidirectional Caco-2 cell monolayer permeability; conditions: based on the Caco-2 permeability study
in vitro [3] = conditions: mouse

## O=C(O)c1cc2ccc(N(Cc3ccccc3)Cc3ccccc3)cc2oc1=O [4a, 7-(dibenzylamino)-2-oxo-2H-chromene-3-carboxylic acid]
In vitro [1]
  microsomal CLint at 0.1 μM: < 116 µL/min/mg
CD-1 mice; ip, 20 mg/kg
  Body weights compared to the control group: no significant difference in body weights
  Visible toxic effects or mortality: did not show any visible toxic effects or mortality
CD-1 mice; po, 100 mg/kg
  Body weights compared to the control group: no significant difference in body weights
  Visible toxic effects or mortality: did not show any visible toxic effects or mortality
GL261-luc2
  IC50: > 250 µM
[2]
  Papp A→B at 10 µM: 32 ×10⁻⁶ cm/s
  Papp B→A at 10 µM: 6.4 ×10⁻⁶ cm/s
Caco-2 cell monolayer
  Absorption: ~ 30%
In vitro [3]; microsomes
  microsomal CLint at 0.1 μM: < 116 µL/min/mg
In vitro [3]; microsomes, Half-life Trial 1
  half-life at 0.1 μM: 1.51 h
In vitro [3]; microsomes, Half-life Trial 2
  half-life at 0.1 μM: 1.23 h

## O=C(O)c1cc2ccc(N3CCCC3)cc2oc1=O [4b]
GL261-luc2
  IC50: > 250 µM

## CCCN(CCC)c1ccc2cc(C(=O)O)c(=O)oc2c1 [4c]
GL261-luc2
  IC50: > 250 µM

## C=CCN(CC=C)c1ccc2cc(C(=O)O)c(=O)oc2c1 [4d]
GL261-luc2
  IC50: > 250 µM

## C#CCN(CC#C)c1ccc2cc(C(=O)O)c(=O)oc2c1 [4e]
GL261-luc2
  IC50: > 250 µM

## CC(C)NCC(O)COc1cccc2ccccc12 (centres unmarked) [Propranolol]
In vitro [3]; liver microsomes, Half-life Trial 2, mouse liver microsomes, 0.1 μM
  half-life at 0.1 μM: 0.158 h
